Legend:
[1] = test system: human prostate cancer cell line PC-3; experiment: In vitro antitumor/anticancer testing (CCK-8), PC-3; assay type: cell-based; conditions: 48 h
Protocol: Each of Tea Product 1 and Conventional Tea Product obtained in section A of this example was used to prepare test tea samples according to the method described below. A proper amount of the respective tea product was added into sterile water to prepare a stock solution with a concentration of 100 mg/mL, followed by using a membrane filter with a pore size of 0.22 μm to conduct vacuum filtration and sterilization. The resulting stock solution was diluted with a respective complete medium shown in Table 3 below to form test tea samples with different concentrations. In other words, the thus obtained test tea samples to be used for treating a respective cancer/tumor cell line shown in Table 3 were prepared using the same complete medium as that for the respective cancer/tumor cell line.
Specifically, each of the aforesaid commercially available agents was subjected to the method described below to prepare comparative test samples. A proper amount of a respective commercially available agent was dissolved in phosphate-buffered saline (PBS) to prepare a stock solution with a concentration of 5 mg/mL, followed by using a membrane filter with a pore size of 0.22 μm to conduct vacuum filtration and sterilization. The resulting stock solution was diluted with a respective complete medium shown in Table 3 below to form comparative test samples with different concentrations. To be specific, the comparative test samples prepared from the respective commercially available agent have the concentrations shown in Table 2 below. The thus obtained comparative test samples to be used for treating a respective cancer/tumor cell line shown in Table 3 were prepared using the same complete medium as that for the respective cancer/tumor cell line.
The following cancer/tumor cells purchased from Chinese Academy of Sciences, Shanghai Institutes for Biological Sciences, Institute of Biochemistry and Cell Biology were used for in vitro antitumor/anticancer testing: human liver cancer cell line HepG2, human ovarian cancer cell line SK-OV-3, human cervical cancer cell line Hela, human lung cancer cell line A549, human glioblastoma cell line U-87MG, human mammary gland/duct cancer cell line BT-474, human prostate cancer cell line PC-3, human leukemia cell line HL-60, human gastric cancer cell line SMMC-7721, human colon cancer cell line HCT-116, human squamous cell carcinoma cell line A431, human leukemia cell line K562, human pancreatic cancer cell line PANC-1, and human gastric cancer cell line BGC-823.
The cultivation of each cancer/tumor cell line is described as follows. The cancer/tumor cancer cells were cultivated in the respective complete medium supplemented with 100 μg/mL penicillin and 100 μg/mL streptomycin in an incubator (37° C., 100% relative humidity, 5% CO2). When adherent cancer/tumor cells reached 80% confluence during the log-phase, cell detachment was conducted using 0.6 mL of 0.3% trypsin. Afterwards, a cell suspension having a cell density of 1.0×10^4 cells/mL was prepared. 100 μL of the cell suspension (i.e. 1000 cancer/tumor cells) was added into wells of a 96-well plate (Cat. No. 3599, Corning Costar), followed by cultivation in an incubator (37° C., 100% relative humidity, 5% CO2) for 24 hours.
As experimental groups, the tumor/cancer cells of each cell line were treated with the test tea samples prepared from one or more of the tea products and the comparative test samples prepared from one or more of the commercially available agents as obtained in section B of this example (for more detailed information about the tea product(s) and the commercially available product (s) used to treat each cell line, please see Table 4 below). To be specific, 6 to 10 test tea samples prepared from the same tea product and having different concentrations, as well as 6 to 10 comparative test samples prepared from the same commercially available agent and having different concentrations, were utilized to treat the tumor/cancer cells of each cell line. […]

[2] = test system: HepG2 cells (human liver cancer cells) transplanted tumor; experiment: In vivo antitumor testing, first experiment (Animal Model 1); design: species or system BALB/c nude mice; conditions: 35 days, 5-fluorouracil 15.0 mg/kg per day intra-abdominal injection, Tea Product 1 0.6 mL of 10% per day intragastric gavage
Protocol: The establishment of Animal Model 1 is addressed as follows. […] SCXK (Hu) 2012-0002) were purchased from Shanghai Silaike Experiment Animal Co., Ltd and were acclimatized for one week. HepG2 cells (human liver cancer cells) mentioned in section C of Example 3 were cultivated in the corresponding complete medium (see Table 3) supplemented with 100 μg/mL penicillin and 100 μg/mL streptomycin in an incubator (37° C., 100% relative humidity, 5% CO2). When adherent cancer/tumor cells reached 97% confluence, the medium was removed. Cell detachment was conducted using trypsin, and the detached cells were transferred to a centrifuge tube. Centrifugation was conducted, and the resulting supernatant was removed. Staining was performed with a 0.4% trypan blue, and it was determined that the cell viability was higher than 97%. A cell suspension having a concentration of […] was prepared using PBS. 0.2 mL of the cell suspension was subcutaneously injected into each of the nude mice at a position posterior to the axilla. […] Tea Product 1 and Conventional Tea Product obtained in section A of Example 3, as well as 5-fluorouracil mentioned in section B of Example 3, were examined for their in vivo antitumor activity. […] In all the three experiments above, each of the nude mice was sacrificed 24 hours after the termination of the treatment. The tumor was collected and weighed. The antitumor effect of a respective test substance was evaluated by virtue of the percent tumor growth inhibition (%), which was calculated using the following Equation II: E=[(F−G)/(F)]×100% (I) • E=percent tumor growth inhibition (%) • F=tumor weight of control group • G=tumor weight of respective test substance group The experimental data are expressed as mean±SEM (standard error of the mean). The experimental data were subjected to one-way analysis of variance (ANOVA) using SPSS (Statistical Package for Social Sciences) software package version 11.5, such that the difference between the groups could be evaluated. The data regarding the tumor weights of the groups were subjected to t-test. […]

IC50 ([1]; PC-3) | Structure (SMILES) | Percent growth inhibition ([1]; 2.5 μg/mL) [%] | Percent growth inhibition ([1]; 7 μg/mL) [%] | Percent growth inhibition ([1]; 10 μg/mL) [%] | Percent growth inhibition ([1]; 20 μg/mL) [%] | Percent growth inhibition ([1]; 40 μg/mL) [%] | Percent growth inhibition ([1]; 80 μg/mL) [%] | Percent growth inhibition ([1]; 160 μg/mL) [%] | Percent growth inhibition ([1]; 320 μg/mL) [%] | Percent growth inhibition ([1]; 640 μg/mL) [%] | Body weight After treatment [2] [g] | Percent tumor growth inhibition [2] [%] | Tumor weight [2] [g]
IC50 (μg/mL) = 39.51 | O=C(O[C@@H]1Cc2c(O)cc(O)cc2O[C@@H]1c1cc(O)c(O)c(O)c1)c1cc(O)c(O)c(O)c1 [EGCG monomer, epigallocatechin gallate] | 16.69 | 19.10 | 19.64 | 26.03 | 40.11 | 74.43 | 86.71 | 96.31 | 92.53 |  |  | 
 | O=c1[nH]cc(F)c(=O)[nH]1 [5-fluorouracil] |  |  |  |  |  |  |  |  |  | 72.90 | 80.84 | 0.08

— patent US20180071354A1, “SELECTIVE BREEDING METHOD OF ANTITUMOR/ANTICANCER CAMELLIA SINENSIS STRAIN, AND TEA PRODUCT OF SUCH STRAIN” (FUJIAN AGRICULTURE AND FORESTRY UNIVERSITY, priority 2015, published 2018)
